Assay results from patent US20100056637A1, “TREATMENT METHODS USING TRIARYL METHANE COMPOUNDS” (Icagen, Inc., priority 2005, published 2010).
Read-outs that look alike come from different tables or passages of the source.

Experiments:
recombinant human KCa3.1 = recombinant human KCa3.1 (Homo sapiens, UniProt O15554); assay: Whole patch clamp of potassium currents in CHO cells stably expressing recombinant human KCa3.1; assay type: cell-based; conditions: 1000 nM Senicapoc; FIG. 2 right panel; cell type not stated
[1] = system: human lung mast cells (HLMC); assay: HLMC chemotaxis (mast cell migration) assay, Transwell system; assay type: cell-based; conditions: airway smooth muscle-conditioned media; 10, 100, 1000 nM; 3 hours
Procedure: Mast cell migration studies were then performed by a method similar to as described in the method of Cruse et al. (Thorax. 2006 61:880-5). Briefly, HLMC chemotaxis assays were performed using the Transwell system with 24 wells. Airway smooth muscle-conditioned media was placed in the lower wells. […] After incubating the cells for 3 hours at 37° C., the number of HLMC in the bottom well were counted using Kimura stain in a hemocytometer. HLMC migration was calculated as the fold increase of migrated cells in the test wells compared with the negative control containing no chemoattractant in the lower well (FIG. 1).

A. suum sensitized sheep = assay: Ascaris suum allergen challenge model of asthma in sheep; assay type: in vivo
Procedure: Briefly, baseline lung resistance (RL) and carbachol concentration response curves were obtained prior to A. suum challenge in sheep. […] Lung resistance was subsequently measured at 0, 1, 2, 3, and 4 hours post allergen challenge to assess early airway responses and at 5, 6, 6.5, 7, 7.5 and 8 hours to assess late airway responses. At 24 hours post challenge, airway hyper-reactivity was determined based on responses to increasing doses of carbachol. Data were analyzed by a one way ANOVA followed by Dunnett's post hoc test when more than 2 groups were compared, or by a t-test when only 2 groups were compared.

[2] = Pharmacokinetics of Senicapoc in sheep plasma; assay type: in vivo; conditions: 30 mg/kg po b.i.d.; relative to levels required to block KCa3.1
Procedure: Since statistically significant effects were observed on lung resistance and airway hyper-reactivity following the 30 mg/kg dose, this level of exposure is sufficient to achieve efficacy in the sheep model. FIG. 7 illustrates exposure in man following administration of a range of doses. The average efficacious plasma level from the sheep model is illustrated by the dashed line.

[3] = Inhaled allergen challenge in human subjects, placebo vs Senicapoc, 13 days; assay type: in vivo; conditions: for fraction of exhaled nitric oxide: after 13 days of treatment, no change in placebo group
Procedure: FIG. 9. FIG. 9A study design. […] FIG. 9B. Change in FEV1 over time past allergen challenge (AC) in human subjects. The late allergen response (LAR) is the decline in FEV1 4 to 10 hours after patients were challenged with an inhaled allergen. The magnitude of the decline in LAR is quantified as the area bounded by the baseline FEV1 (0%), and the actual FEV1 measurements between hours 4 and 10. Subjects randomized to 13 days of treatment with placebo had no change in the LAR (left panel). […] By analysis of co-variance, the difference in LAR at Day 13 between the two treatment groups was 29%.
By analysis of co-variance, the difference in late airway responsiveness between the two treatment groups was 29% (see, FIG. 9B). In addition, the fraction of nitric oxide exhaled by Senicapoc-treated group declined with no change seen in the placebo group (data not shown).

Half-life in blood = assay type: in vitro ADME; conditions: including human blood
Description: Triphenylacetamide-based K^+-channel blockers are promising candidates for the treatment of sickle cell disease (SCD) as discussed in U.S. Pat. No. 6,288,122 which is herein incorporated by reference. In addition, studies indicate that triphenylacetamide-based inhibitors are potential candidate drugs for the treatment of inflammatory conditions.

[4] = cited from earlier work; for mean Cmax / mean total systemic dose / oral clearance rate / terminal half-life: patients with sickle cell disease

Q: For `NC(=O)C(c1ccccc1)(c1ccc(F)cc1)c1ccc(F)cc1` [Senicapoc, 2,2-bis(4-fluorophenyl)-2-phenylacetamide], which “channel inhibition with varied voltage” value (recombinant human KCa3.1) is on record?
A: Its value is “nearly complete channel inhibition”.

Q: And the “HLMC migration resulting from inflammatory stimuli” value [1]?
A: The value was “inhibits”.

Q: What about the “reversal of the hyper-reactivity to carbachol” value (A. suum sensitized sheep; 30 mg/kg PO for 4 days) of the same molecule?
A: Its value is “Complete reversal”.

Q: What about the “apparent reduction in peak early response” value (A. suum sensitized sheep; 30 mg/kg PO, not statistically significant) of the same molecule?
A: Its value is 33%.

Q: And the “average late allergen responses (lung resistance)” value (A. suum sensitized sheep; 5-8 hours after allergen challenge, oral, IV and inhalation routes)?
A: Its value is “significantly attenuates”.

Q: And the “hyper-reactivity to aerosolized carbachol” value (A. suum sensitized sheep; 24 hours post A. suum challenge, all three routes of administration)?
A: Its value is “significantly reduced”.

Q: And the “reversal of the hyper-reactivity to carbachol” value (A. suum sensitized sheep; acute 10 mg/kg IV dosing)?
A: The value was “Complete reversal”.

Q: What about the “peak early airway responses” value (A. suum sensitized sheep; immediately after allergen challenge, 10 mg/kg IV) of the same molecule?
A: Its value is “significantly reduced”.

Q: What about the “plasma exposure corrected for protein binding” value [2] of the same molecule?
A: The value was “sustained levels significantly above those required to block KCa3.1”.

Q: What about the “difference in late airway responsiveness (LAR, FEV1 decline 4 to 10 hours) between Senicapoc and placebo groups” value ([3]; Day 13, 80 mg BID for three days, then 40 mg daily, analysis of co-variance) of the same molecule?
A: Its value is 29%.

Q: And the “fraction of exhaled nitric oxide” value [3]?
A: The value was “declined”.

Q: What about the “fraction of exhaled nitric oxide” value ([3]; listed as senicapoc) of the same molecule?
A: The value was “decreased”.

Q: What about the half-life in blood (Half-life in blood) of the same molecule?
A: Its half-life in blood is “long half-life”.

Q: What about the mean elimination half-life ([4]; oral dose, across three clinical studies, 68 patients) of the same molecule?
A: The mean elimination half-life was 12 to 17 days.

Q: And the “mean Cmax” value ([4]; 50 mg single dose)?
A: The value was 59.1 ng/mL.

Q: What about the “mean total systemic dose” value ([4]; 50 mg single dose) of the same molecule?
A: The value was 11,826 ng·hr/ml.

Q: And the oral clearance rate ([4]; 50 mg single dose)?
A: The oral clearance rate was 4.75 L/h.

Q: What about the terminal half-life ([4]; 50 mg single dose) of the same molecule?
A: Its terminal half-life is 15.4 days.

Q: And the “mean Cmax” value ([4]; 100 mg single dose)?
A: Its value is 108.7 ng/mL.

Q: And the “mean total systemic dose” value ([4]; 100 mg single dose)?
A: The value was 19,696 ng·hr/ml.

Q: And the oral clearance rate ([4]; 100 mg single dose)?
A: Its oral clearance rate is 6.1 L/h.

Q: What about the terminal half-life ([4]; 100 mg single dose) of the same molecule?
A: Its terminal half-life is 9.12 days.

Q: And the “mean Cmax” value ([4]; 150 mg single dose)?
A: Its value is 109.1 ng/mL.

Q: What about the “mean total systemic dose” value ([4]; 150 mg single dose) of the same molecule?
A: The value was 30,675 ng·hr/ml.

Q: What about the oral clearance rate ([4]; 150 mg single dose) of the same molecule?
A: The oral clearance rate was 5.8 L/h.

Q: What about the terminal half-life ([4]; 150 mg single dose) of the same molecule?
A: The terminal half-life was 12.4 days.

Q: What about the “drug-related serious adverse events” value ([4]; phase I clinical studies) of the same molecule?
A: The value was “no drug-related serious adverse events”.
